# Measurements published in ChEMBL document CHEMBL1131642, “Synthesis and antibacterial activity of O-methyl derivatives of azalide antibiotics: I. 4", 11 and 12-OMe derivatives via direct methylation” (1998).
# What was measured:
# Type in all cases: functional
# Bacillus subtilis = assay: Minimum inhibitory concentration against macrolide susceptible strains of Bacillus subtilis (MB5586)
# Enterococcus faecalis = assay: Minimum inhibitory concentration against macrolide susceptible strain of Enterococcus faecalis (MB5407)
# Streptococcus pyogenes = assay: Minimum inhibitory concentration against macrolide susceptible strain of Streptococcus pyogenes (MB2874)
# Staphylococcus aureus = assay: Minimum inhibitory concentration against macrolide susceptible strain of Staphylococcus aureus (MB2865)
# Streptococcus pneumoniae = assay: Minimum inhibitory concentration against macrolide susceptible strain of Streptococcus pneumoniae (MB3957)
# Enterococcus faecium = assay: Minimum inhibitory concentration against macrolide susceptible strain of Enterococcus faecium (MB5516)
SMILES,MIC (Bacillus subtilis) [µg/mL],MIC (Enterococcus faecalis) [µg/mL],MIC (Streptococcus pyogenes) [µg/mL],MIC (Staphylococcus aureus) [µg/mL],MIC (Streptococcus pneumoniae) [µg/mL],MIC (Enterococcus faecium) [µg/mL]
CC[C@H]1OC(=O)[C@H](C)[C@@H](O[C@H]2C[C@@](C)(OC)[C@@H](OC)[C@@H](C)O2)[C@H](C)[C@@H](O[C@@H]2O[C@H](C)C[C@@H](N(C)C)[C@H]2O)[C@](C)(O)C[C@@H](C)N(C)C[C@H](C)[C@@H](O)[C@]1(C)O,4,8,0.03,8,0.5,2
CC[C@H]1OC(=O)[C@H](C)[C@@H](O[C@H]2C[C@@](C)(OC)[C@@H](OC)[C@@H](C)O2)[C@H](C)[C@@H](O[C@@H]2O[C@H](C)C[C@@H](N(C)C)[C@H]2O)[C@](C)(O)C[C@@H](C)N(C)C[C@H](C)[C@@H](OC)[C@]1(C)O,16,32,0.5,32,2,16
CC[C@H]1OC(=O)[C@H](C)[C@@H](O[C@H]2C[C@@](C)(OC)[C@@H](OC)[C@@H](C)O2)[C@H](C)[C@@H](O[C@@H]2O[C@H](C)C[C@@H](N(C)C)[C@H]2O)[C@](C)(O)C[C@@H](C)N(C)C[C@H](C)[C@@H](O)[C@]1(C)OC,4,16,0.25,8,1,4
CC[C@H]1OC(=O)[C@H](C)[C@@H](O[C@H]2C[C@@](C)(OC)[C@@H](OC)[C@@H](C)O2)[C@H](C)[C@@H](O[C@@H]2O[C@H](C)C[C@@H](N(C)C)[C@H]2O)[C@](C)(O)C[C@@H](C)CN(C)[C@H](C)[C@@H](OC)[C@]1(C)OC,8,16,0.25,8,1,4
CC[C@H]1OC(=O)[C@H](C)[C@@H](O[C@H]2C[C@@](C)(OC)[C@@H](O)[C@@H](C)O2)[C@H](C)[C@@H](O[C@@H]2O[C@H](C)C[C@@H](N(C)C)[C@H]2O)[C@](C)(O)C[C@@H](C)CN(C)[C@H](C)[C@@H](OC)[C@]1(C)OC,4,16,0.12,8,1,2
CC[C@H]1OC(=O)[C@H](C)[C@@H](O[C@H]2C[C@@](C)(OC)[C@@H](O)[C@@H](C)O2)[C@H](C)[C@@H](O[C@@H]2O[C@H](C)C[C@@H](N(C)C)[C@H]2O)[C@](C)(O)C[C@@H](C)CN(C)[C@H](C)[C@@H](OC)[C@]1(C)O,1,8,0.03,1,0.03,0.5
CC[C@H]1OC(=O)[C@H](C)[C@@H](O[C@H]2C[C@@](C)(OC)[C@@H](O)[C@@H](C)O2)[C@H](C)[C@@H](O[C@@H]2O[C@H](C)C[C@@H](N(C)C)[C@H]2O)[C@](C)(O)C[C@@H](C)CN(C)[C@H](C)[C@@H](O)[C@]1(C)OC,–,4,0.03,1,0.03,0.25
CC[C@H]1OC(=O)[C@H](C)[C@@H](O[C@H]2C[C@@](C)(OC)[C@H](O)[C@H](C)O2)[C@H](C)[C@@H](O[C@@H]2O[C@H](C)C[C@H](N(C)C)[C@H]2O)[C@](C)(O)C[C@@H](C)N(C)C[C@H](C)[C@@H](O)[C@]1(C)O,0.3,2,< 0.06,0.3,< 0.06,0.125
CC[C@H]1OC(=O)[C@H](C)[C@@H](O[C@H]2C[C@@](C)(OC)[C@@H](OC)[C@@H](C)O2)[C@H](C)[C@@H](O[C@@H]2O[C@H](C)C[C@@H](N(C)C)[C@H]2O)[C@](C)(O)C[C@@H](C)N(C)C[C@H](C)[C@@H](OC)[C@]1(C)OC,2,32,0.5,32,4,8
CC[C@H]1OC(=O)[C@H](C)[C@@H](O[C@H]2C[C@@](C)(OC)[C@@H](O)[C@H](C)O2)[C@H](C)[C@@H](O[C@@H]2O[C@H](C)C[C@H](N(C)C)[C@H]2O)[C@](C)(O)C[C@@H](C)CN(C)[C@H](C)[C@@H](O)[C@]1(C)O [AZITHROMYCIN],1,4,0.03,0.5,< 0.06,0.25
